Assay results taken from patent publication US20250134889A1, “TARGETING IRE1 KINASE AND FMRP FOR PROPHYLAXIS, MANAGEMENT AND TREATMENT OF ATHEROSCLEROSIS” (CEDARS-SINAI MEDICAL CENTER, priority 2022, published 2025).

Tests used:
atherosclerotic plaque = conditions: mice; cited from earlier work
[1] = system: mouse and human macrophages; conditions: cited from earlier work
HEK293T cells = assay: ER stress-induced phosphorylation in control- or IRE1-siRNA transfected HEK293T cells (western blot); type: cell-based, human; conditions: PA 500 μM or TG 600 nM, 4 hours, control cells
Procedure: FIGS. 1A-1K depict FMRP is a new inositol-requiring enzyme-1 (IRE1) kinase substrate. A representative blot is shown from at least n=3 independent experiments. Data are mean±SEM. Unpaired 1-test with Welch's correction or paired 1-test. * P≤0.05, ** P≤0.01, *** P≤0.001. • 1A. STING analysis of published IRE1 interactome proteins in relation to FMRP (Acosta-Alvear et al., 2018). • 1B. HEK293T cells were co-transfected with IRE1 and FMRP plasmids and stimulated with TG (600 nM) or TM (1 mg/ml) for 2 hours. Protein lysates were immunoprecipitated (IP) with anti-IRE1 or IgG (control) antibodies and analyzed by Western blotting using specific antibodies for FMRP and IRE1 (n=3). • 1C. RAW 264.7 mouse macrophages were treated with either oxLDL (50 μg/ml) or TG (300 nM) for 6 hours. Protein lysates were treated with λ Phosphatase (PPase) for 30 minutes and analyzed by western blotting using specific antibodies for pFMRP, FMRP, pIRE1, IRE1 and β-Actin. pFMRP/FMRP fold induction is depicted above the blots (n=6). • 1D. […] Protein lysates were analyzed by western blotting using specific antibodies for pFMRP, FMRP, pIRE1, IRE1 and β-Actin. pFMRP/FMRP-fold induction is depicted above the blots (n=5). • 1E. […] Protein lysates were analyzed by western blotting using specific antibodies for pFMRP, FMRP, pIRE1, IRE1 and β-Actin. pFMRP/FMRP fold induction is depicted above the blots (n=4). • 1F. […]

[2] = system: RAW 264.7 mouse macrophages; assay: ER stressor treatment of RAW 264.7 macrophages (western blot, qRT-PCR); type: cell-based; conditions: oxLDL 50 μg/ml or TG 300 nM, 6 hours
Procedure: FIGS. 1A-1K depict FMRP is a new inositol-requiring enzyme-1 (IRE1) kinase substrate. A representative blot is shown from at least n=3 independent experiments. Data are mean±SEM. Unpaired 1-test with Welch's correction or paired 1-test. * P≤0.05, ** P≤0.01, *** P≤0.001. • 1A. STING analysis of published IRE1 interactome proteins in relation to FMRP (Acosta-Alvear et al., 2018). • 1B. HEK293T cells were co-transfected with IRE1 and FMRP plasmids and stimulated with TG (600 nM) or TM (1 mg/ml) for 2 hours. Protein lysates were immunoprecipitated (IP) with anti-IRE1 or IgG (control) antibodies and analyzed by Western blotting using specific antibodies for FMRP and IRE1 (n=3). • 1C. RAW 264.7 mouse macrophages were treated with either oxLDL (50 μg/ml) or TG (300 nM) for 6 hours. Protein lysates were treated with λ Phosphatase (PPase) for 30 minutes and analyzed by western blotting using specific antibodies for pFMRP, FMRP, pIRE1, IRE1 and β-Actin. pFMRP/FMRP fold induction is depicted above the blots (n=6). • 1D. Apoe^−/− mice were fed with chow diet (CD) or western diet (WD) for 16 weeks followed by peritoneal macrophage (PM) isolation. Protein lysates were analyzed by western blotting using specific antibodies for pFMRP, FMRP, pIRE1, IRE1 and β-Actin. pFMRP/FMRP-fold induction is depicted above the blots (n=5). • 1E. Control- or IRE1-siRNA transfected HEK293T cells were stimulated by either PA (500 μM) or TG (600 nM) for 4 hours. Protein lysates were analyzed by western blotting using specific antibodies for pFMRP, FMRP, pIRE1, IRE1 and β-Actin. pFMRP/FMRP fold induction is depicted above the blots (n=4). • 1F. Protein lysates of thioglycolate-elicited PM from IRE1α^−/− and IRE1α^−/− mice (after 16 weeks on WD) were analyzed by western blotting using specific antibodies for pFMRP, FMRP, pIRE1, IRE1 and β-Actin. pFMRP/FMRP fold induction is depicted above the blots (n=4). • 1G. […] Protein lysates were analyzed by western blotting using specific antibodies for pFMRP, FMRP, pIRE1, IRE1 and β-Actin. pFMRP/FMRP fold induction is depicted above the blots (n=4). • 1H. […] Protein lysates of thioglycolate-elicited PM were analyzed by western blotting using antibodies for pFMRP, FMRP, pIRE1, IRE1 and β-Actin. pFMRP/FMRP fold induction is depicted above the blots (n=4). • 1I. […] The IP protein were analyzed by western blotting using specific antibodies for thiophosphate esters (ThioP), IRE1 and FMRP (n=3). • 1J. Purified FMRP and IRE1 kinase (activated) proteins were subjected to kinase assay and analyzed by western blotting using specific antibodies for ThioP, IRE1 and FMRP (n=3) and with LC-MS/MS. […] Protein lysates were analyzed by western blotting using specific antibodies for FMRP, pFMRP, pIRE1 and β-Actin. pFMRP/FMRP fold induction is depicted above the blots (n=3). […]

| SMILES | atherosclerotic plaque size (atherosclerotic plaque) | hyperlipidemia-induced m-IL-1β and m-IL-18 production (atherosclerotic plaque) | lipid-induced inflammasome activation [1] | secretion of mature interleukin-1β (m-IL-1β) and m-IL-18 [1] | phosphorylation of FMRP (HEK293T cells) | phosphorylation of IRE1 (HEK293T cells) | FMRP phosphorylation (S500) [2] | IRE1 autophosphorylation (S724) [2] | levels of FMRP protein [2] | levels of Fmr1 mRNA [2] |
| --- | --- | --- | --- | --- | --- | --- | --- | --- | --- | --- |
| Cc1cc(=O)oc2c(C=O)c(O)ccc12 [4μ8C] | reducing | reducing | prevented | prevented | – | – | – | – | – | – |
| O=S(=O)(N=Cc1c(O)ccc2ccccc12)c1cccs1 [STF-083010] | reducing | reducing | prevented | prevented | – | – | – | – | – | – |
| C/C=C(/C)C(=O)O[C@H]1C(C)=C2[C@H]([C@@H]1OC(=O)CCCCCCC)[C@@](C)(OC(C)=O)C[C@H](OC(=O)CCC)[C@@]1(O)[C@H]2OC(=O)[C@@]1(C)O [TG, thapsigargin] | – | – | – | – | induced | induced | significantly induced | significantly induced | did not affect | did not affect |
